Assay results from article PMC9303235 (2022).

How the values were obtained:
[1] = tested on: QD3-sbl (DNA, G4) TTAGGTGGGTAGGGTGGGCTAGTCATTTTGACTAGG; experiment: ITC; conditions: 120 mM K+; 20 mM potassium phosphate, 100 mM KCl, pH 7.0, 5% DMSO, 40 °C; high-affinity site, two-site fit
[2] = tested on: QD3-sbl (DNA, G4) TTAGGTGGGTAGGGTGGGCTAGTCATTTTGACTAGG; experiment: NMR solution structure; conditions: K+ (10 mM potassium phosphate); pH 7.0, 30 °C; about 2% DMSO-d6; intercalation at quadruplex-duplex junction
[3] = tested on: QD2-l (DNA, G4) GGTTGGCGCGAAGCATTCGCGGGTTGG; experiment: NMR titration (imino protons, ROESY exchange); conditions: K+ (10 mM potassium phosphate), pH 7.0, 20 °C, 0.5 mM DNA, slow exchange, intercalation at junction

| Ka [1] | binding [2] | binding [3] | SMILES |
| --- | --- | --- | --- |
| (1.1±0.3) ⋅ 10^7 M^-1 | yes | yes | CN(C)CCCNc1c2ccccc2nc2c1[nH]c1ccccc12 |
| (3.3±0.7) ⋅ 10^6 M^-1 |  |  | C[n+]1c2ccccc2cc2[nH]c3ccccc3c21 |
